Assay results: patent KR20140086355A, “콜치신 유도체를 유효성분으로 포함하는 암의 예방 또는 치료용 조성물” (한국화학연구원, priority 2012, dated 2014)
Entries after “also recorded” stand apart in the source; their conditions may differ.

What was measured:
Format in all cases: cell-based
[1] = system: human colorectal cancer cells [인간 대장암 세포]; assay: Apoptosis induction in human colorectal cancer cells (Western blot); conditions: listed as 콜치신
PLK-1 [2] = assay: PLK-1 ELISA in HCT116 cells; conditions: HCT116, 48 h
PLK-1 [3] = assay: Western blot of Plk-1 in HCT116 cells; conditions: HCT116, 48 h; listed as 콜치신
[4] = system: human colorectal cancer cells HCT116 [인간 대장암 세포, HCT116]; assay: alamarBlue cell proliferation assay, human colorectal cancer cells HCT116; conditions: 48 h, concentration dependence (Fig. 3: 100nM-1μM; Fig. 9)

SMILES: COc1cc2c(c(OC)c1OC)-c1ccc(OC)c(=O)cc1[C@@H](NC(C)=O)CC2 [H11-G04, Colchicine]
- induction of apoptosis [1]: 콜치신이 인간 대장암 세포의 사멸(apoptosis)를 유도함; also recorded: 세포사멸을 유도
- Plk-1 concentration (PLK-1 [2]): 콜치신에 의해 Plk-1 농도가 감소함
- inhibition of Plk-1 expression (PLK-1 [3]): 콜치신이 Plk-1의 발현을 억제함; also recorded: Plk-1의 발현도 역시 억제된다
- inhibition of cell proliferation [4]: 세포증식이 농도에 따라 유의적으로 억제되는 효과가 나타났다
